Target: T1, Gq coupled P2u purinergic receptor (THP-1) (Homo sapiens, UniProt P41231)
T1 construct: human monocytic leukemia cell line that carried the Gq coupled P2u purinergic receptor (THP-1); endogenous in cells; host or cells: THP-1 (human monocytic leukemia cell line)
Experiment: model calcium flux assay in THP-1 cells in a microfluidic device
Type: cell-based
Settings: THP-1 cells preloaded with Fluo-3 or Fluo-4; UTP 100, 300, 1000 and 3000 nM; detection 15 seconds after exposure
From the text: The device shown in FIG. 1A was used to test the dose response of a human monocytic leukemia cell line that carried the Gq coupled P2u purinergic receptor (THP-1), as a model calcium flux assay. Briefly, a phospholipase C/IP3/calcium signal transduction pathway is activated when the receptor binds to its ligand UTP. When the cells are preloaded with a calcium sensitive indicator, i.e., Fluo-3 or Fluo-4 (available from Molecular Probes, Eugene, Oreg.). The transient increase in intracellular calcium is then detected as a fluorescent signal.
In the present example, THP-1 cells were preloaded with Fluo-3 or Fluo-4, as well as a nucleic acid stain (Syto-62 from Molecular Probes). The cells were washed and resuspended in Cell Buffer (1.56 ml HBSS, 0.94 ml 33% Ficoll, 5 μl HEPES (1 M stock), 25 μl 100× PBC, 25 μl 10% BSA, and 0.546 ml OPTI-Prep (65% stock)) and added to reservoir 106. Different concentrations of UTP in Cell Buffer (100, 300, 1000 and 3000 nM, respectively) were then added to reagent reservoirs 110-116. […]
In order to monitor the stepwise increase of each UTP reagent solution, an additional marker solution, BODIPY-arginine, was added to the reagent reservoirs 110-116. […] Briefly, the slope of calcium signal (response) vs. Syto 62 signal (cell number) was calculated for each UTP concentration. […]

T1 sequence (P41231 whole entry): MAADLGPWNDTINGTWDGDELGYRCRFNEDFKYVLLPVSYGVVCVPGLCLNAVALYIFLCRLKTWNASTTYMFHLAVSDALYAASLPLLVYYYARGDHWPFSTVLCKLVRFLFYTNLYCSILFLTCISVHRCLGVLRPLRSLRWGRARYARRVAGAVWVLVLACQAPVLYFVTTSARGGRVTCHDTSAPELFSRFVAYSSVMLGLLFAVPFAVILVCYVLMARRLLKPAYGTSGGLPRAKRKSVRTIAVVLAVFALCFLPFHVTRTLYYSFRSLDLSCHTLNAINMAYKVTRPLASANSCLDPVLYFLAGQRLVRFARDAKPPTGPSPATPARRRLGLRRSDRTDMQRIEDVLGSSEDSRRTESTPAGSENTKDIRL

calcium signal (fluorescent peaks from each cell) with stepwise addition of UTP: increase discernibly in size
SMILES: O=c1ccn([C@@H]2O[C@H](COP(=O)(O)OP(=O)(O)OP(=O)(O)O)[C@@H](O)[C@H]2O)c(=O)[nH]1 [UTP]

Reference: patent publication US7276330B2, “Devices, systems and methods for time domain multiplexing of reagents” (Caliper Technologies Corp., priority 1999, dated 2007)
